Legend:
Assay type in all cases: cell-based
[1] = system: HCT15 (human colon cancer) cell line; assay: MTT in vitro cytotoxicity assay, HCT15; conditions: 24 h incubation with complex, three independent experiments, read-out: IC50 against HCT15
Method: (§1) The cells were seeded at 3×10^3 cells/well in 100 μL of Dulbecco's Modified Eagle's Medium (DMEM) containing 10% fetal bovine serum (FBS) in a 96-well tissue culture plate and incubated for 72 h at 37° C., 5% CO2 and 90% relative humidity in a CO2 incubator. After incubation, 100 μL of 100, 50, 25 and 12.5 μM solutions of cisplatin and gold(I) complexes prepared in Dulbecco's Modified Eagle's Medium (DMEM) was each added to the cells and the cultures were incubated for 24 h. The medium in the wells was casted off, and 100 μL of DMEM containing MTT (0.5 mg/mL) was added to the wells, which were subsequently incubated in the CO2 incubator at 37° C. in the dark for 4 h. After incubation, purple-colored formazan produced by the cells appeared as dark crystals in the bottom of the wells. The culture medium was carefully removed from each well to prevent disruption of the monolayer, and 100 μL of dimethyl sulfoxide (DMSO) was added in each well. The solution in the wells was thoroughly mixed to dissolve the formazan crystals which produced a purple solution. The absorbance of the 96 well-plates was measured at 570 nm with Labsystems Multiskan EX ELISA reader against a reagent blank. The experimental results were calculated as micro-molar concentration for 50% cell growth inhibition (IC50) of each drug. The MTT assay was carried out in three independent experiments, each in triplicate. […]

[2] = system: MCF7 (human breast adenocarcinoma) cell line; assay: MTT in vitro cytotoxicity assay, MCF7; conditions: 24 h incubation with complex, three independent experiments, read-out: IC50 against MCF7
Method: as §1

[3] = system: A549 (human lung carcinoma) cell line; assay: MTT in vitro cytotoxicity assay, A549; conditions: 24 h incubation with complex, three independent experiments, read-out: IC50 against A549
Method: as §1

Q: Which IC50 [1] does the source give for `N.N.[Cl][Pt][Cl]` [Cisplatin, cisplatin, reference compound] here?
A: 33 ± 2 µM

Q: For [Au(IPr)(ImSe]PF6 [Complex (II)], which IC50 [2] is on record?
A: 43 ± 2 µM

Q: And the IC50 [1]?
A: 33 ± 1 µM

Q: What about the IC50 [3] of the same compound?
A: 47 ± 1 µM

— patent US10189865B1, “Gold(I) complexes, pharmaceutical compositions thereof, and methods of treating proliferative disorders” (King Fahd University of Petroleum and Minerals, priority 2018, dated 2019)
